Biological target: T1, human islet amyloid polypeptide (hIAPP, amylin) (Homo sapiens, UniProt P10997)
T1 sequence (P10997 34-70 limits assumed): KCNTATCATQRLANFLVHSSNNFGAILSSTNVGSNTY
Experiment: ITC
Assay type: binding

Kd: ~1100 nM
Compound: O=C(O[C@@H]1Cc2c(O)cc(O)cc2O[C@@H]1c1cc(O)c(O)c(O)c1)c1cc(O)c(O)c(O)c1 [EGCG]

— article PMC6450719 (Biochimica et biophysica acta. Proteins and proteomics, 2018)
